From PMC3003687, “α-Galactosylceramide Analogs with Weak Agonist Activity for Human iNKT Cells Define New Candidate Anti-Inflammatory Agents” (PLoS ONE, 2010)

Key:
human iNKT cell clones = assay: Cytokine ELISA of human iNKT cell clones stimulated with glycolipid-pulsed CD1d-transfected HeLa cells; format: cell-based; settings: for EC50: Homo sapiens, iNKT, HDD3 clone, IL-4 levels did not reach a plateau; for iNKT cell clone cytokine response / agonist activity: dose range, IFNγ, IL-4, IL-13, clones HDD3, HDD11, HDE3, HDA7
Method: Capture ELISA assays were used for measurement of cytokine responses of human iNKT cells to αGalCer analogs. One day prior to the experiment, CD1d transfected HeLa cells were plated at 25×10^3 cells/well in 100 µL of medium in flat-bottom 96 well plates. Glycolipids were then added in 100 µL of medium to give final concentrations ranging from 0.05 to 10^4 nM. The APCs were incubated for approximately 18 hours with the glycolipids and then irradiated (10,000 Rad) and washed twice with PBS prior to addition of 25×10^3 iNKT cells well in 300 µL. Supernatants were harvested after 24 hours of co-culture and stored frozen at -20°C. After thawing, aliquots of the supernatants were assayed for specific cytokines by ELISA using capture and biotin-labeled detection antibody pairs specific for GM-CSF, IL-2, IL-4, IL-12p70 and IL-13 (all obtained from BD Biosciences), IFNγ (Thermo-Scientific) or IL-18 (MBL). Specific signals were developed using HRP- conjugated streptavidin (BD Biosciences) and Turbo TMB substrate (Thermo-Scientific). Supernatants were tested pure and/or diluted to give values within a quantitative linear standard curve generated with recombinant cytokines. Curves of dose-dependent cytokine responses and graphs were plotted using the Graphpad Prism Software. EC50 values were calculated using the function log (agonist) response with variable slope, and statistical analyses were carried out using the same software. To calculate concentration-dependent cytokine ratios, IL-4/IFNγ and IL-13/IFNγ ratios were calculated using cytokine values from which background levels (i.e. levels in cultures receiving DMSO vehicle alone) were subtracted. Ratios were calculated by dividing IL-4 or IL-13 concentrations in pg/mL by IFNγ concentration in ng/mL.

hCD1d = molecular target: T1, hCD1d (Homo sapiens, UniProt P15813); assay: Loading of hCD1d tetramers with variable glycolipid to CD1d ratios; format: binding; settings: for lipid excess at which tetramers were efficiently loaded: 20 nM tetramers, 25 to 1000 fold molar excess of glycolipid to hCD1d, HDD3 clone
T1 construct: we generated soluble and fluorescent tetrameric hCD1d molecules loaded with each of the glycolipid analogs; made in house
T1 sequence (P15813 20-301 limits assumed): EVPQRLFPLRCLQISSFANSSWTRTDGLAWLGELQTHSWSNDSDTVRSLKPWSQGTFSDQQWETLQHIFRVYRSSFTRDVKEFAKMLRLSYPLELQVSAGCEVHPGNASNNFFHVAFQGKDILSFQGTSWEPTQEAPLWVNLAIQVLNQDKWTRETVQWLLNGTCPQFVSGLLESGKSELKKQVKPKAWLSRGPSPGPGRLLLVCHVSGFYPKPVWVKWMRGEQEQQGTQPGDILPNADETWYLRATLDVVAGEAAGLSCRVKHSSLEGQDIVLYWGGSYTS
T1 sequence (P61769 21-119 partner): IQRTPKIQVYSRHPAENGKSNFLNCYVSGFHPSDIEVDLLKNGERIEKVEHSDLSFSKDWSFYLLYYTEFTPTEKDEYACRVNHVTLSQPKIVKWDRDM
Description: (§1) To characterize in more detail the iNKT cell TCR recognition of αGalCer analogs presented by human CD1d, we generated soluble and fluorescent tetrameric hCD1d molecules loaded with each of the glycolipid analogs. […] This was similar to the previously reported failure of mouse CD1d tetramer loaded with lysosulfatide to bind detectably to murine non-invariant and sulfatide specific NKT cells, despite a clear reactivity to this lipid upon presentation by APCs; [40]. […] To quantitate their binding avidities to iNKT cell TCRs, we used titration of analog-loaded hCD1d tetramers to determine equilibrium dissociation constants (KD), which are inversely proportional to avidity (Figure 3A and 3B).
(§2) Figure 3 Characterization of human iNKT cell TCR interactions with analog-loaded tetramers. (A) iNKT cell clones were stained with titrated amounts of hCD1d tetramers loaded with the indicated glycolipids (abbreviations as in legend to Figure 1), and the measured MFI values are plotted for selected glycolipids. (B) The equilibrium dissociation constants (KD, inversely proportional to TCR avidity) were determined as the concentrations of tetramers required to yield 50% of maximal binding. Data shown were obtained using the CD4^+ iNKT cell clone HDD3, and similar results (not shown) were obtained with a second CD4^+ clone (HDD11) and a CD4^−8^− double negative iNKT cell clone (HDE3). (C) Analysis of iNKT cell clones labeled with 20 nM of hCD1d tetramers which were loaded with variable excesses of analog to constant hCD1d (25 to 1000 fold molar excess of glycolipid to hCD1d protein). The measured MFI values were normalized as the percent of the maximum staining intensity obtained with each analog loaded tetramer. Data presented were generated with HDD3 (CD4+) iNKT cell clone, and similar results (not shown) were obtained with HDE3 (DN) clone.

[1] = tested on: human iNKT cells and NK cells; assay: In vitro transactivation assay (CFSE-labeled iNKT cells co-cultured with PBMC); format: cell-based; settings: 24 h; for IL-12 levels in supernatants / IL-13 levels in supernatants / IL-18 levels in supernatants / global IFNγ production in supernatants / ability to activate iNKT cells and stimulate NK cell transactivation (IFNγ+ cells): 100 nM; for IL-12 levels in supernatants / IL-13 levels in supernatants / IL-18 levels in supernatants / global IFNγ production in supernatants: ELISA; for ability to activate iNKT cells and stimulate NK cell transactivation (IFNγ+ cells): iNKT/PBMC 1/10, compared with KRN7000
Method: iNKT cells were stained for 5 minutes with 1–20 µM of CFSE (Molecular probes) and 5% FCS in PBS and washed twice. As a positive control, a fraction of CFSE-labeled iNKT cells were preactivated for 30 minutes with 1 µg/mL of PMA and 250 ng/mL of Ionomycin (Sigma-Aldrich) in culture medium and extensively washed. The experiment was initiated by adding CFSE-labeled unstimulated or PMA/Ionomycin-preactivated iNKT cells to freshly prepared PBMC pulsed with vehicle or αGalCer analogs at the indicated concentrations and at an iNKT/PBMC ratio of 1/10 or 1/40. Supernatants and cells were harvested from parallel conditions after the indicated time of co-culture. For intracellular cytokine staining, brefeldin A (Golgiplug, BD Biosciences) was added 4 h before harvesting the cells, which were fixed with 1% paraformaldehyde and permeabilized with 0.1% saponin (Sigma-Aldrich) prior to mAb staining. Experiments with blocking antibodies were performed with 10 µg/mL of preservative-free mAbs, including isotype matched control, anti-IL-2, anti-IL-12, anti-IFNγ and anti-CD40L (all from BD Biosciences) or anti-IL-18 (MBL). For detection of CD40L expression by iNKT cells, co-cultures of iNKT and PBMC were prepared as above, except that monensin (Golgistop, BD Biosciences) and fluorescent CD40L specific mAb (1/10 or 1/20 final dilution) were added at the beginning of the experiment, as previously described.
Figure 6 A novel in vitro “transactivation assay” to assess the ability of human iNKT cells to activate other leukocytes. (A) Format for analysis of transactivation of bystander leukocytes. Flow cytometric analysis was carried out for culture containing iNKT cells co-cultured for 24 hours with fresh human PBMC at a 1/10 ratio. For the intracellular detection of IFNγ, Brefeldin A was added for the last 4 hours. Representative electronic gating is shown for the discrimination of CFSE-labeled iNKT cells, B cells, T cells, and NK cells to measure IFNγ expression (or CD69 expression, not shown). Filled black histograms show staining with vehicle control and are overlaid with open gray histograms for stimulation with 100 nM of KRN7000. (B) Dose-dependent IFNγ and CD40L expression by iNKT cells (top and middle graph, respectively) and IFNγ production by transactivated NK cells (bottom graph), after 24 h of co-culture of CFSE-labeled iNKT cells and PBMCs at a 1/10 ratios and the indicated concentration of either KRN7000 (black filled circles) or the adamantanoyl (AD) analog (open circles). Data are presented for a CD4^+ clone (HDD3), and similar results (not shown) were obtained with a DN clone (HDE3). (C) Effect of specific blockade of various cytokines and CD40L on the activation of iNKT cells and transactivated NK cells. CFSE-labeled iNKT cells and PBMCs were co-cultured at a 1/40 ratio for the indicated time, in the presence of KRN7000 at 25 nM and 10 µg/mL of isotype matched control or specific blocking antibodies as indicated. Average percentages of IFNγ^+ iNKT cells and NK cells, assessed by intracellular staining at 24, 48 and 66 hours, are indicated in the left and right plots, respectively.
Figure 7 Comparison of αGalCer analogs for their ability to induce NK cell transactivation. (A) iNKT cell clones were co-cultured for 24 hours with fresh human PBMC at a 1/10 ratio with 100 nM of the indicated analogs, and Brefeldin A was added for the last 4 hours. The percentages of IFNγ^+ iNKT cells (open bars) and IFNγ^+ NK cells (filled bars) are indicated. Cytokine levels were assessed by ELISA in supernatants from identical conditions in absence of Brefeldin A treatment: (B) IFNγ levels (open bars) and IL-13 levels (filled bars); the detection limit was 82.3 ng/mL for both cytokines. (C) IL-12 levels (open bars) and IL-18 levels (filled bars); the detection limit was 27.4 ng/mL. Results obtained with a CD4^+ clone (HDD3) are presented, and similar data (not shown) were obtained with a DN clone (HDE3).

Human iNKT TCRs = Human iNKT TCRs (Homo sapiens, UniProt A0A075B6N4+A0A0B4J240+P15813); assay: Equilibrium binding of analog-loaded hCD1d tetramers to iNKT cell clones
Sequence of Human iNKT TCRs (P15813 20-301): as the sequence (P15813 20-301 limits assumed) above
Sequence of Human iNKT TCRs (P01848 whole entry, further chain): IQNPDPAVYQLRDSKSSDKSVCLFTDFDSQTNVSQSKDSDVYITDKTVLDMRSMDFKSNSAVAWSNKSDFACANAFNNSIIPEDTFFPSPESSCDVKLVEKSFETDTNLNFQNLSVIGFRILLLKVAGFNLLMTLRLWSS
Sequence of Human iNKT TCRs (A0A0B4J240 22-114): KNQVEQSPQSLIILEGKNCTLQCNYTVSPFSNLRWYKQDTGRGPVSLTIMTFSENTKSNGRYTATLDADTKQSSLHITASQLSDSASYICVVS
Sequence of Human iNKT TCRs (P61769 21-119, further chain): as the sequence (P61769 21-119 partner) above
Sequence of Human iNKT TCRs (A0A075B6N4 22-114): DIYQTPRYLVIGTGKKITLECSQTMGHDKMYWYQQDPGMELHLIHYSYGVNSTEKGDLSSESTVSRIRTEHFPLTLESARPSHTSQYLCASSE
Description: For flow cytometric analysis, 6B11 (Vα24Jα18 specific) and mAbs specific for human CD3, CD4, CD8α, CD19, CD40L (CD154), CD56, CD69, GM-CSF & IFNγ were obtained from BD Biosciences. IL-4 and IL-13 specific mAbs were from Biolegend. Vα24 (C15) and Vβ11 (C21) specific mAb were from Immunotech. For antibody blocking in culture assays, non-specific isotype matched control, IL-2, IFNγ, IL-12p70 and CD40L specific mAbs without preservatives were obtained from BD Biosciences and IL-18 specific mAb from Medical & Biological Laboratories (MBL, Nagoya, Japan). Phycoerythrin and allophycocyanin labeled human CD1d tetramers were prepared in our laboratory as previously described. Curves of tetramer equilibrium binding constants and graphs were plotted using the Graphpad Prism Software (Version 5). KD values were calculated using the function non-linear fit (hyperbola, one binding site).
as §1, §2

human iNKT cells = settings: cited from earlier work

In the case of `CCCCCCCCCCCCCC[C@@H](O)[C@@H](O)[C@H](CO[C@H]1O[C@H](CO)[C@H](O)[C@H](O)[C@H]1O)NC(=O)C12CC3CC(CC(C3)C1)C2` [AD], the EC50 (human iNKT cell clones) is reported as > 10 µM, the “lipid excess at which tetramers were efficiently loaded” value (shortened to “lipid excess”) (hCD1d) is reported as 25–50 fold and the “IL-12 levels in supernatants” value [1] is reported as “undetectable”. The “IL-13 levels in supernatants” value [1] was “lower, but still detectable, IL-13 levels”, the “IL-18 levels in supernatants” value [1] was “remained low” and the “global IFNγ production in supernatants” value [1] was “lower global IFNγ production”. The “ability to activate iNKT cells and stimulate NK cell transactivation (IFNγ+ cells)” value (“ability” below) [1] was “lower degree of iNKT cell activation with a limited transactivation of NK cells” and the “CD40L and IFNγ expression by iNKT cells” value ([1]; iNKT/PBMC 1/10, dose range) was “induced with high doses”.
With `CCCCCCCCCCCCCC[C@@H](O)[C@@H](O)[C@H](CO[C@H]1O[C@H](CO)[C@H](O)[C@H](O)[C@H]1O)NC(=O)c1cccc(Br)c1` [BB] the EC50 (human iNKT cell clones) was > 10 µM, the “lipid excess” value (hCD1d) was 25–50 fold and the “IL-12 levels in supernatants” value [1] was “undetectable”. For the same compound, the “IL-13 levels in supernatants” value [1] was “lower, but still detectable, IL-13 levels”, the “IL-18 levels in supernatants” value [1] was “remained low” and the “global IFNγ production in supernatants” value [1] was “lower global IFNγ production”. The “ability” value [1] was “lower degree of iNKT cell activation with a limited transactivation of NK cells”.
With `CCCCCCCCCCCCCCCCCCCCCCCCCC(=O)N[C@@H](CC[C@H]1O[C@H](CO)[C@H](O)[C@H](O)[C@H]1O)[C@H](O)[C@H](O)CCCCCCCCCCCCCC` [C-glycoside] the “reactivity of HDD3 iNKT cell clone” value (human iNKT cell clones; CD4+ clone HDD3) was “did not display detectable reactivity”, the “reactivity of a fraction of the iNKT cell clones tested” value (human iNKT cell clones; primarily IL-13 production, limited induction of IFNγ) was “weak, but detectable, reactivity” and the “clones with detectable reactivity” value (human iNKT cell clones; six clones tested) was “Two clones out of six clones tested”. The “staining of iNKT cell clones by analog-loaded hCD1d tetramers” value (Human iNKT TCRs) was “only a weak staining intensity of a subset of iNKT cell clones tested” and the “stimulation of human iNKT cells in culture” value (human iNKT cells) was “only weakly stimulatory”.
For `CCCCCCCCCCCCCC[C@@H](O)[C@@H](O)[C@H](CO[C@H]1O[C@H](CO)[C@H](O)[C@H](O)[C@H]1O)NC(=O)c1ccc(F)c(F)c1` [DFB], the EC50 (human iNKT cell clones) was > 10 µM, the “binding to hCD1d” value (hCD1d) was “weak binding to hCD1d” and the “lipid excess” value (hCD1d) was “much higher lipid excess was necessary”. For the same compound, the “IL-12 levels in supernatants” value [1] was “undetectable”, the “IL-13 levels in supernatants” value [1] was “lower, but still detectable, IL-13 levels” and the “IL-18 levels in supernatants” value [1] was “remained low”. The “global IFNγ production in supernatants” value [1] was “lower global IFNγ production” and the “ability” value [1] was “lower degree of iNKT cell activation with a limited transactivation of NK cells”.
For `CCCCCCCCCCCCCC[C@@H](O)[C@@H](O)[C@@H](N)CO[C@H]1O[C@H](CO)[C@H](O)[C@H](O)[C@H]1O` [Lyso], the “iNKT cell clone cytokine response / agonist activity” value (human iNKT cell clones) was “substantially lower iNKT cell response”, the “staining of iNKT cell clones by analog-loaded hCD1d tetramers” value (Human iNKT TCRs) was “failed to detectably stain any of our iNKT cell clones” and the “IL-12 levels in supernatants” value [1] was “undetectable”. For the same compound, the “IL-13 levels in supernatants” value [1] was “lower, but still detectable, IL-13 levels”, the “IL-18 levels in supernatants” value [1] was “remained low” and the “global IFNγ production in supernatants” value [1] was “lower global IFNγ production”. The “ability” value [1] was “lower degree of iNKT cell activation with a limited transactivation of NK cells”.
With `CCCCCCCCCCCCCC[C@@H](O)[C@@H](O)[C@H](CO[C@H]1O[C@H](CO)[C@H](O)[C@H](O)[C@H]1O)NC(=O)c1ccc(C)cc1` [Tol] the “iNKT cell clone cytokine response / agonist activity” value (human iNKT cell clones) was “substantially lower iNKT cell response”, the “lipid excess” value (hCD1d) was 25–50 fold and the “IL-12 levels in supernatants” value [1] was “detectable IL-12 generation”. For the same compound, the “IL-13 levels in supernatants” value [1] was “high IL-13 levels”, the “IL-18 levels in supernatants” value [1] was “enhanced IL-18 levels compared to vehicle control” and the “global IFNγ production in supernatants” value [1] was “high global production of IFNγ”.
